Calls of active or inactive are those of the source. How the calls were made is not given here.
Experiments:
Assay in all cases: selectivity profiling over binding targets, CYP450 – biochemical, Ricerca HitProfilingScreen, selectivity assay for S1P3 agonist project, profiling panel (AID 540351)
[1] = biological target: 5-hydroxytryptamine receptor 2B (Homo sapiens) (UniProt P41595); settings: Ricerca receptor/enzyme binding panel plus CYP450; Serotonin (5-Hydroxytryptamine) 5-HT2B; at 30 µM; stronger effect = higher value
Adenosine A1 = settings: Ricerca receptor/enzyme binding panel plus CYP450, at 30 µM, stronger effect = higher value
Adenosine A2A = settings: Ricerca receptor/enzyme binding panel plus CYP450, at 30 µM, stronger effect = higher value
Adrenergic alpha1A = settings: Ricerca receptor/enzyme binding panel plus CYP450, at 30 µM, stronger effect = higher value
Adrenergic alpha1B = settings: Ricerca receptor/enzyme binding panel plus CYP450, at 30 µM, stronger effect = higher value
Adrenergic beta1 = settings: Ricerca receptor/enzyme binding panel plus CYP450, at 30 µM, stronger effect = higher value
[2] = biological target: Alpha-2A adrenergic receptor (Homo sapiens) (UniProt P08913); settings: Ricerca receptor/enzyme binding panel plus CYP450; Adrenergic alpha2A; at 30 µM; stronger effect = higher value
[3] = tested on: Alpha-2A adrenergic receptor (Homo sapiens) + Histamine H1 receptor (Homo sapiens) + Mu-type opioid receptor (Homo sapiens); settings: Ricerca receptor/enzyme binding panel plus CYP450; at 30 µM; stronger effect = higher value
[4] = biological target: Beta-2 adrenergic receptor (Homo sapiens) (UniProt P07550); settings: Ricerca receptor/enzyme binding panel plus CYP450; Adrenergic beta2; at 30 µM; stronger effect = higher value
Chain of Beta-2 adrenergic receptor (Homo sapiens) (P07550 whole entry, looked up): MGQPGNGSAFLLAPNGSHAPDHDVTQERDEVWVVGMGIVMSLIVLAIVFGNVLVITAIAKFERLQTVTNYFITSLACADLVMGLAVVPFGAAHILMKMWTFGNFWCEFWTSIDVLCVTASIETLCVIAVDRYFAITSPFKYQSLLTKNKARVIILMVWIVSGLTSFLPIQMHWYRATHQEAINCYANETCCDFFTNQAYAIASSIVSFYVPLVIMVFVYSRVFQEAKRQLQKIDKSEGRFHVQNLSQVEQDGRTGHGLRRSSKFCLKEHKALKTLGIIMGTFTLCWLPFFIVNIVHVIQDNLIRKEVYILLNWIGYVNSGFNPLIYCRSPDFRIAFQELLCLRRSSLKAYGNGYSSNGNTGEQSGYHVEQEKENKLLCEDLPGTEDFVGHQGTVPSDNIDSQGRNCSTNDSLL

CYP450, 2C19 = settings: Ricerca receptor/enzyme binding panel plus CYP450, at 30 µM, stronger effect = higher value
Calcium Channel L-Type = settings: Ricerca receptor/enzyme binding panel plus CYP450, Dihydropyridine, at 30 µM, stronger effect = higher value
Cannabinoid CB1 = settings: Ricerca receptor/enzyme binding panel plus CYP450, at 30 µM, stronger effect = higher value
[5] = biological target: Cytochrome P450 1A2 (Homo sapiens) (UniProt P05177); settings: Ricerca receptor/enzyme binding panel plus CYP450; CYP450, 1A2; at 30 µM; stronger effect = higher value
Chain of Cytochrome P450 1A2 (Homo sapiens) (P05177 whole entry, looked up): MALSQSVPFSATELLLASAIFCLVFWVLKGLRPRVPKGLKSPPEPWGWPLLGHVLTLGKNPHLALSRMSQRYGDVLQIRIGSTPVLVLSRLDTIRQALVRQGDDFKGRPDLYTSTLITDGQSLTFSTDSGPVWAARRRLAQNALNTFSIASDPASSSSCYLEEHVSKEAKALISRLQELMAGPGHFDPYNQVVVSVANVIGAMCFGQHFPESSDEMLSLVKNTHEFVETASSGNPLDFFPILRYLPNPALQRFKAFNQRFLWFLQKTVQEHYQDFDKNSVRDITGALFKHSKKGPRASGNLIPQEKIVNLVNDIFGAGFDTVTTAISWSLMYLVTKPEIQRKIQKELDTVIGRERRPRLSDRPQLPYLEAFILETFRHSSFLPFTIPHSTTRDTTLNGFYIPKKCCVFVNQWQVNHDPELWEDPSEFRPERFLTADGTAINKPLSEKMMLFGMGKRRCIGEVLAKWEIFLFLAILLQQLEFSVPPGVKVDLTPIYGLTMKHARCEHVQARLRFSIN

[6] = biological target: Cytochrome P450 2C9 (Homo sapiens) (UniProt P11712); settings: Ricerca receptor/enzyme binding panel plus CYP450; CYP450, 2C9; at 30 µM; stronger effect = higher value
Chain of Cytochrome P450 2C9 (Homo sapiens) (P11712 whole entry, looked up): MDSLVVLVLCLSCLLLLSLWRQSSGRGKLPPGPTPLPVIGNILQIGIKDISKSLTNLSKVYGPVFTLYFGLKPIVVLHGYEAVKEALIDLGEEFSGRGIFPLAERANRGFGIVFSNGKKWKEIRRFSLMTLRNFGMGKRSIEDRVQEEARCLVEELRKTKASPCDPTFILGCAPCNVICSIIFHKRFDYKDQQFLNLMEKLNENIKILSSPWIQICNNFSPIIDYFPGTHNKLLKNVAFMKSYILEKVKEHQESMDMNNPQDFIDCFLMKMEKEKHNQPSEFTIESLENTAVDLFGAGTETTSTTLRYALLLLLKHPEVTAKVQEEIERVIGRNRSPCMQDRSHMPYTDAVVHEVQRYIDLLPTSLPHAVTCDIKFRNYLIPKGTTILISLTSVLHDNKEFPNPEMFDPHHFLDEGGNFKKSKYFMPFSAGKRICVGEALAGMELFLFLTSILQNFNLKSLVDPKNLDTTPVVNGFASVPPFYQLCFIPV

[7] = biological target: Cytochrome P450 2D6 (Homo sapiens) (UniProt P10635); settings: Ricerca receptor/enzyme binding panel plus CYP450; CYP450, 2D6; at 30 µM; stronger effect = higher value
Chain of Cytochrome P450 2D6 (Homo sapiens) (P10635 whole entry, looked up): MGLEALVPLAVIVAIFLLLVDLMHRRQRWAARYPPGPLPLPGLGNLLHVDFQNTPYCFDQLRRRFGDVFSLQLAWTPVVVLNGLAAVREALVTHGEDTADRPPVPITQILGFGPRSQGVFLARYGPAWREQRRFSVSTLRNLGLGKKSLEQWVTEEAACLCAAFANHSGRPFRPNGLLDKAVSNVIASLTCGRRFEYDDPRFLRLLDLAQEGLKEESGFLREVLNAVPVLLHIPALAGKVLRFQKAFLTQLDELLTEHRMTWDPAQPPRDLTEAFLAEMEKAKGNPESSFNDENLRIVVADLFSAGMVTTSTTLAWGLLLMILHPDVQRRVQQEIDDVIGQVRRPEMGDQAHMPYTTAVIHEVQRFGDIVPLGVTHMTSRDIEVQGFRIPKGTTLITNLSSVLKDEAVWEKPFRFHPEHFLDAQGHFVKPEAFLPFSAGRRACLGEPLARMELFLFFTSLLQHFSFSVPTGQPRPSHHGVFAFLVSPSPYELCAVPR

[8] = biological target: Cytochrome P450 3A4 (Homo sapiens) (UniProt P08684); settings: Ricerca receptor/enzyme binding panel plus CYP450; CYP450, 3A4; at 30 µM; stronger effect = higher value
Chain of Cytochrome P450 3A4 (Homo sapiens) (P08684 whole entry, looked up): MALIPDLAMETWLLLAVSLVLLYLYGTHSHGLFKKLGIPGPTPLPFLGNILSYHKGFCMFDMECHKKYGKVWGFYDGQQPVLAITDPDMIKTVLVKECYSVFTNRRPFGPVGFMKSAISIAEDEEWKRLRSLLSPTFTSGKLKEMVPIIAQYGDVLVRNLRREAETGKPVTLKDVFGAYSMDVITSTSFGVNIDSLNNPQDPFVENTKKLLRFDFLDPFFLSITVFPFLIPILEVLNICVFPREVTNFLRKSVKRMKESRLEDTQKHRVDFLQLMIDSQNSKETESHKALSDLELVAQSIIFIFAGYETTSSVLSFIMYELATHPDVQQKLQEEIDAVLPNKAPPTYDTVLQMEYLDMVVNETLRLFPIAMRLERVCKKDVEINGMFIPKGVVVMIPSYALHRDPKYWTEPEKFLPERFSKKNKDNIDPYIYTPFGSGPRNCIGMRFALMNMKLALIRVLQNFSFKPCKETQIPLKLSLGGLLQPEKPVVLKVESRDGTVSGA

[9] = biological target: D(1A) dopamine receptor (Homo sapiens) (UniProt P21728); settings: Ricerca receptor/enzyme binding panel plus CYP450; Dopamine D1; at 30 µM; stronger effect = higher value
Dopamine D2 = settings: Ricerca receptor/enzyme binding panel plus CYP450, at 30 µM, stronger effect = higher value
GABAA = settings: Central, at 30 µM, stronger effect = higher value
Glutamate NMDA = settings: Ricerca receptor/enzyme binding panel plus CYP450, Phencyclidine, at 30 µM, stronger effect = higher value
Histamine H1 = settings: Ricerca receptor/enzyme binding panel plus CYP450, at 30 µM, stronger effect = higher value
[10] = biological target: Muscarinic acetylcholine receptor M2 (Homo sapiens) (UniProt P08172); settings: Ricerca receptor/enzyme binding panel plus CYP450, at 30 µM, stronger effect = higher value
Chain of Muscarinic acetylcholine receptor M2 (Homo sapiens) (P08172 whole entry, looked up): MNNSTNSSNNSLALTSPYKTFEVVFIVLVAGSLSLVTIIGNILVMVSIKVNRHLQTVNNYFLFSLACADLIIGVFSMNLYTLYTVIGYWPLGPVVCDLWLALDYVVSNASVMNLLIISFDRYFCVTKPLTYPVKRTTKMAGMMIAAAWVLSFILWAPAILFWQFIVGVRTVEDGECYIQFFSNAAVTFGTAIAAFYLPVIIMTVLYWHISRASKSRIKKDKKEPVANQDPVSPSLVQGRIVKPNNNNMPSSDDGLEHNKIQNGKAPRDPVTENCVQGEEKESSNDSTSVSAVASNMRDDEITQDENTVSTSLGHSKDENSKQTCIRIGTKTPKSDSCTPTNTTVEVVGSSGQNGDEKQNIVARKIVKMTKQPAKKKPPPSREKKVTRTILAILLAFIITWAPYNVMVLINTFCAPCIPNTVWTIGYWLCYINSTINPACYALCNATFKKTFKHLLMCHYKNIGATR

[11] = biological target: Muscarinic acetylcholine receptor M3 (Homo sapiens) (UniProt P20309); settings: Ricerca receptor/enzyme binding panel plus CYP450, at 30 µM, stronger effect = higher value
Chain of Muscarinic acetylcholine receptor M3 (Homo sapiens) (P20309 whole entry, looked up): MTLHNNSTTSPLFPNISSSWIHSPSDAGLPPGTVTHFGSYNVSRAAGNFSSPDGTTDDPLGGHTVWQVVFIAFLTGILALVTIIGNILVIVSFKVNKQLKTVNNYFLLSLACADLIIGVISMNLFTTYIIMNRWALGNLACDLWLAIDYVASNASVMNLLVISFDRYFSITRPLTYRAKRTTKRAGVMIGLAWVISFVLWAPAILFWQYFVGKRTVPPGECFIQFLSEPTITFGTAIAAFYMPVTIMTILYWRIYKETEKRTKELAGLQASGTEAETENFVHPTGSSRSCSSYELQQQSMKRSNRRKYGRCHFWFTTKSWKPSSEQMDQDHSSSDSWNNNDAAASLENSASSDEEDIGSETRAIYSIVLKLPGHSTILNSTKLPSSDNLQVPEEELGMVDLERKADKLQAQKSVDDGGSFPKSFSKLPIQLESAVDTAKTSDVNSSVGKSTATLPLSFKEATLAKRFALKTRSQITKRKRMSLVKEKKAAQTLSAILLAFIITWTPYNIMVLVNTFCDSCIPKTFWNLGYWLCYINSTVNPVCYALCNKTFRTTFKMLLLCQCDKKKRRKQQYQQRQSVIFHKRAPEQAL

Nicotinic Acetylcholine = settings: Ricerca receptor/enzyme binding panel plus CYP450, at 30 µM, stronger effect = higher value
Opiate mu (OP3, MOP) = settings: Ricerca receptor/enzyme binding panel plus CYP450, at 30 µM, stronger effect = higher value
Prostanoid EP4 = settings: Ricerca receptor/enzyme binding panel plus CYP450, at 30 µM, stronger effect = higher value
Sigma 1 = settings: Ricerca receptor/enzyme binding panel plus CYP450, at 30 µM, stronger effect = higher value
Sodium Channel, Site 2 = settings: Ricerca receptor/enzyme binding panel plus CYP450, at 30 µM, stronger effect = higher value
[12] = tested on: Transporter, Norepinephrine (NET); settings: Ricerca receptor/enzyme binding panel plus CYP450, at 30 µM, stronger effect = higher value
[13] = biological target: Voltage-gated inwardly rectifying potassium channel KCNH2 (Homo sapiens) (UniProt Q12809); settings: Ricerca receptor/enzyme binding panel plus CYP450; Potassium Channel hERG; at 30 µM; stronger effect = higher value
Chain of Voltage-gated inwardly rectifying potassium channel KCNH2 (Homo sapiens) (Q12809 whole entry, looked up): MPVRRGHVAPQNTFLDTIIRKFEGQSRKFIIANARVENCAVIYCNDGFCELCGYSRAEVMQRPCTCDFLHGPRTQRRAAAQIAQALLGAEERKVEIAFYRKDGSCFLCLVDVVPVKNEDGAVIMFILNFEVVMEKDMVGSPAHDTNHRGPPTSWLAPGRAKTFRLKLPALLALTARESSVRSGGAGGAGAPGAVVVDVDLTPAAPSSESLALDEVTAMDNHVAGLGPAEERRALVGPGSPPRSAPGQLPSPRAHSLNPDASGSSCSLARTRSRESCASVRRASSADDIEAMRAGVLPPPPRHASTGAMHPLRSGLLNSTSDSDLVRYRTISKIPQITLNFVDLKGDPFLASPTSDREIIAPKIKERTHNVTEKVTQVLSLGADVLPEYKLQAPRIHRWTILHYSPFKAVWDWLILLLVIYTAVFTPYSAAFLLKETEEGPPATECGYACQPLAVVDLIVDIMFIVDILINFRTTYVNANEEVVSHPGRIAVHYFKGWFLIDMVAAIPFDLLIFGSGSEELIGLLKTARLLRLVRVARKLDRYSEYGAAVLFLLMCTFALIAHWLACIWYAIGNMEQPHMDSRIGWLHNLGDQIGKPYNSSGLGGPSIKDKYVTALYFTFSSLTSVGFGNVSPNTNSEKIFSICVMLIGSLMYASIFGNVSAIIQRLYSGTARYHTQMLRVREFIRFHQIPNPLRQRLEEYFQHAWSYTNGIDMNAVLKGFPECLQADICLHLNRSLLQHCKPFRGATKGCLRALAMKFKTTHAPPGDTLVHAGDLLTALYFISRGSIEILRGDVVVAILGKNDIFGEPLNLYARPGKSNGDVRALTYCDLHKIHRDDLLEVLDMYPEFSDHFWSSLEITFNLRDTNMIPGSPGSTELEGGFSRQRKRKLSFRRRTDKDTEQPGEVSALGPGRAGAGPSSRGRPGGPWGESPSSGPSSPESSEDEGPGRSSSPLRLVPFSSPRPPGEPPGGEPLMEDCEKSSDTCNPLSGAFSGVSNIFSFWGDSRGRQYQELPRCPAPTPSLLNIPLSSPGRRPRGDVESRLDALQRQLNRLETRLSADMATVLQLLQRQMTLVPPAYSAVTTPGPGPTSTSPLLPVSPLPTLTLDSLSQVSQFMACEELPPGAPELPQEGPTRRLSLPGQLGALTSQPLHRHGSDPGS

Measured: inhibition

O=C(c1cc(C2CC2)on1)N(C1CCCCC1)C1CCCCC1
active: CYP450, 2C19 68% | Cannabinoid CB1 58% | [8] 74% | Histamine H1 51% | Nicotinic Acetylcholine -50% | Sodium Channel, Site 2 59% | [12] 52%
inactive: [1] 20% | Adenosine A1 38% | Adenosine A2A 5% | Adrenergic alpha1A 21% | Adrenergic alpha1B 13% | Adrenergic beta1 45% | [2] 34% | [3] -2% | [4] -1% | Calcium Channel L-Type 28% | [5] 0% | [6] 24% | [7] -26% | [9] 21% | Dopamine D2 -1% | GABAA; Ricerca receptor/enzyme binding panel plus CYP450, Flunitrazepam 1% | GABAA; Ricerca receptor/enzyme binding panel plus CYP450, Muscimol -2% | Glutamate NMDA 1% | [10] -1% | [11] 47% | Opiate mu (OP3, MOP) 38% | Prostanoid EP4 32% | Sigma 1 16% | [13] 42%
